Results on four compounds are retold here after patent publication US20030091555A1, “Bactericidal composition containing peptide and chelating agent” (NATIONAL AGRICULTURAL RESEARCH ORGANIZATION, priority 2001, published 2003).

In brackets after ≈: the same amount, converted by molar mass. Some results are limits rather than exact numbers.

One may read the MBC as the lowest tested concentration that kills the bacteria rather than only halting them.

The test system of one series is E. coli. The following applies: high concentration (10 mM); cited from earlier work.
The subject of a further series is V. parahaemolyticus. The conditions noted are these: high concentration (10 mM); cited from earlier work.
For series [1] the following is noted: as food additive; cited from earlier work.
Series [2] concerns Salmonella typhimurium JCM 6977. The series can be described thus: MIC/MBC by viable count after 1 day cultivation. The conditions noted are these: for MBC: Salmonella enterica; for synergistic effects with thionin, compared with EDTA-2Na: with alpha-type thionin of wheat 10 μg/mL. It is filed as cell-based. The method, then:
(§1) Bacillus cereus was inoculated into a sensitive measurement medium (manufactured by Nissui Pharmaceutical Co., Ltd., Tokyo, Japan), and other bacteria such as food poisoning bacteria were inoculated into an LB medium (1% polypeptone, 0.5% yeast extract, 0.5% sodium chloride, pH 7.2) and incubated at 37° C. for 1 day.
(§2) Then, after adding predetermined amounts of thionin and EDTA, the bacteria were inoculated so that the concentration of bacteria was about 1×10^6 cells/mL. After cultivating the bacteria for 1 day for other bacteria, the viable count was measured by a method of diluted plate culture. The concentration in which the viable count was decreased to 1/100 or less was defined as minimum bactericidal concentration (MBC) and the concentration in which the viable count was not increased was defined as minimum inhibitory concentration (MIC). The results obtained are shown in Tables 1, 2 and 3, as well as in FIG. 1.

Series [3] relates to Escherichia coli 06 JCM 5491. Nature of the series: MIC/MBC by viable count after 1 day cultivation. The following applies: for MBC: Escherichia coli; for synergistic effects with thionin, compared with EDTA-2Na: with alpha-type thionin of wheat 10 μg/mL. Type of series: cell-based. The protocol:
as §1, §2

The subject of series [4] is test bacteria (food poisoning bacteria). Nature of the series: MIC/MBC, text summary over the test bacteria. It is filed as cell-based. The conditions noted are these: for MBC: added alone. The protocol:
as §1, §2

The subject of series [5] is Salmonella enteritidis IFO 3313. The series can be described thus: MIC/MBC by viable count after 1 day cultivation. The following applies: LB medium, 37° C. Type of series: cell-based. The protocol: as §1, §2
Series [6] relates to Vibrio parahaemolyticus IFO 12711. Nature of the series: MIC/MBC by viable count after 1 day cultivation. Type of series: cell-based. The following applies: LB medium, 37° C. The protocol:
as §1, §2

Series [7] has as its system Bacillus cereus IFO 15305. The series can be described thus: MIC/MBC by viable count after 1 day cultivation. The following applies: sensitive measurement medium, 37° C. Type of series: cell-based. The protocol: as §1, §2
The next series deals with Bacillus cereus JCM 2152. The series can be described thus: MIC/MBC by viable count after 1 day cultivation. It is filed as cell-based. The following applies: sensitive measurement medium, 37° C. The method, then:
as §1, §2

Series [8] concerns Escherichia coli 01:K1:H7 JCM 1649. The series can be described thus: MIC/MBC by viable count after 1 day cultivation. It is filed as cell-based. The conditions noted are these: LB medium, 37° C. The protocol:
as §1, §2

For another series, the target named is T1, trypsin (Bos taurus, UniProt P00760).
T1 construct: gene PRSS1
T1 sequence (P00760 24-246): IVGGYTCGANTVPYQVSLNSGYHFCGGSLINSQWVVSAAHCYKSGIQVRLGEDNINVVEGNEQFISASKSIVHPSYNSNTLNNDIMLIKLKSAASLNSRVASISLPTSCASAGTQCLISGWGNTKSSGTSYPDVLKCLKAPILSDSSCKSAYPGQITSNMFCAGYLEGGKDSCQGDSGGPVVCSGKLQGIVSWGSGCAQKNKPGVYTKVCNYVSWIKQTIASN
The following applies: cited from earlier work.

Another series relates to guinea pig. The conditions noted are these: administered once with 103 to 229 mg/kg body weight, observed for 7 days; cited from earlier work.
Where [9] appears, read: EDTA-2Na added alone, LB medium, 37° C., 1 day.
[10] abbreviates: thionin added alone, LB medium, 37° C., 1 day.

Turning to `O=C(O)CN(CCN(CC(=O)O)CC(=O)O)CC(=O)O` [EDTA, ethylenediaminetetraacetic acid], the antibacterial activity result in the series on E. coli and with V. parahaemolyticus was “shows antibacterial activity” in each case. In series [1], the “ADI (Acceptable Daily Intake)” value was 2.5 mg/kg body weight. The MBC in series [2] (Thionin (10 μg/mL) +: with alpha-type thionin of wheat) amounted to 0.0001 µM (≈ 0.0292 ng/mL); in series [2] (Thionin (10 μg/mL) −: without alpha-type thionin of wheat), 0.005 µM (≈ 1.46 ng/mL); in series [3] (JCM5491, Thionin (10 μg/mL) +: with alpha-type thionin of wheat) it was 0.001 µM (≈ 0.292 ng/mL); in series [3] (JCM5491, Thionin (10 μg/mL) −: without alpha-type thionin of wheat), 0.005 µM (≈ 1.46 ng/mL). Moreover, the “synergistic effects with thionin, compared with EDTA-2Na” value in series [2] and in series [3] was “identical to or higher than that of EDTA-2Na” in each case.

Take `O=C([O-])CN(CCN(CC(=O)[O-])CC(=O)O)CC(=O)O.[Na+].[Na+]` [EDTA-2Na, EDTA disodium]: the “MBC of EDTA-2Na as compared with the addition of EDTA-2Na alone” value in series [4] (10 μg/mL alpha-type thionin of wheat added simultaneously, food poisoning bacteria) is “decreased”. Moreover, the minimal bactericidal concentration (MBC) in series [4] (Salmonella sp. and E. coli) is at least 10000 µM; in series [4] (other bacteria (not Salmonella sp., E. coli)), at most 1000 µM. Also, the “MBC EDTA-2Na” value in series [5] (EDTA-2Na added alone) was 50< mM; in series [2] (setting [9]), 20000 µM; in [3] (setting [9]), 10000 µM; in [6] (EDTA-2Na added alone) it was 1000 µM; in [7] (EDTA-2Na added alone), 200 µM; in the series with Bacillus cereus JCM 2152 (EDTA-2Na added alone), 500 µM. Moreover, the “MBC EDTA-2Na” value in series [8] (EDTA-2Na added alone) is 50000 µM.

Take `O=C([O-])CN(CCN(CC(=O)[O-])CC(=O)[O-])CC(=O)[O-].[Na+].[Na+].[Na+].[Na+]` [EDTA-4Na, EDTA-tetrasodium salt]: the “synergistic effects with thionin, compared with EDTA-2Na” value in series [2] and in [3] was “identical to or higher than that of EDTA-2Na” each time.

On to thionin [reference compound], for which the “decomposition by a digestive enzyme” value with trypsin is recorded as “rapid decomposition”. In addition, in the series with guinea pig, the abnormality after administration entry is on record as “no abnormality was observed”. In addition, the “MIC Thionin” value is 100< μg/mL in [5] (thionin added alone); 30 µg/mL in series [2] (setting [10]); 100 µg/mL in series [3] (setting [10]); 20 µg/mL in series [6] (thionin added alone); 100< μg/mL in series [7] (thionin added alone); 100 µg/mL in the series on Bacillus cereus JCM 2152 (thionin added alone). Further, the “MIC Thionin” value in series [8] (thionin added alone) is 100< μg/mL.
